From patent US20150246074A1, “METHODS OF A[…] TOLERANCE” (The Board of Trustees of the University of Illinois, priority 2014, published 2015)

Columns and labels:
SH-SY5Y cells = assay: cAMP accumulation assay in morphine-treated SH-SY5Y cells; assay type: cell-based, human; settings: for cAMP levels: 24 h, SH-SY5Y cells, control not treated with morphine = 100%
Protocol: Culture of SH-SY5Y Cells. SH-SY5Y cells, a well-established stable human neuroblastoma cell line, were purchased from American Type Culture Collection (ATCC, Manassas, Va.) and grown in Dulbecco's modified Eagle's medium (DMEM) with 10% fetal bovine serum, […] penicillin, and 100 μg/ml streptomycin at 37° C. in a 5% CO2 humidified incubator (Fisher). Before experiments, SH-SY5Y cells were treated with 10 μM retinoic acid (RA) for 6 days to induce neuronal differentiation. These differentiated SH-SY5Y cells were then treated with morphine (10 μM) for 24 h unless otherwise specified.
cAMP Accumulation Assay. Levels of cAMP, which is involved in a cellular mechanism of opioid tolerance development, were determined in morphine-treated SH-SY5Y cells. Thirty-six hours after co-culturing with hMSCs or HDFs, SH-SY5Y cells were harvested with a non-enzymatic cell dissociation solution and washed once with HBSS buffer. cAMP accumulation in SH-SY5Y cells was assayed using a LANCE™ cAMP kit (PerkinElmer, Waltham, Mass.) according to the manufacturer's protocol. SH-SY5Y cells were centrifuged at 1000 g for 2 min, resuspended at a concentration of 2×10^6 cells/ml in stimulation buffer (1×HBSS, 5 mM HEPES, 0.1% BSA, 0.5 mM IBMX, pH 7.4) and mixed with 50 μM forskolin. Alexa pluor® 647 labeled antibody was added to the cell suspension and the cells were incubated at 37° C. for additional 15 min, and detection mix was then added to the final cell suspension. The cell sample was further incubated for 1 h in the dark and read on a TECAN instrument (San Jose, Calif.) to measure the LANCE signal. The LANCE signal obtained at […] was directly used to analyze the cAMP levels. The signal at […] was used to identify dispensing or quenching problems. The cAMP standard curve was assayed according to the manufacturer's instructions. The cAMP formation was calculated as the percentage of forskolin-stimulated cAMP accumulation without morphine, which was defined as 100%. All data were expressed as mean±SD. Statistical comparisons were analyzed using Prism software. […]

Sprague-Dawley rats [1] = assay: Withdrawal thresholds to thermal stimulation (plantar test) in rats, MSC transplantation and daily morphine; assay type: in vivo, rat; settings: control group, Day 17 and thereafter, daily morphine, p<0.05
Protocol: (§1) Animal care and use. The experimental protocols were approved by the Institutional Animal Care and Use Committee of Cleveland Clinic (IACUC #: 2010-0460). Experiments were performed on 24 male Sprague-Dawley rats (250-300 g), purchased from Harlan Laboratories (Indianapolis, Ind.). The animals were housed in group cages (2 per cage), allowed free access to food and water, and maintained on a 12/12 hour light/dark cycle.
(§2) Experimental design. Animals were habituated daily to the experimental environment for 1 week before testing. Pain sensitivity to mechanical or thermal stimuli applied to the hindpaws was determined by the thresholds of withdrawal of the hindlimbs from the stimuli. […] The effects of MSC transplantation or PBS injection on morphine-induced tolerance were evaluated every other day. […]
(§3) Stem cell transplantation. […] Immediately before transplantation, the cells were gently dissociated with 0.25% Trypsin, pelleted by centrifugation, counted by trypan blue exclusion, and suspended in 50 μl of PBS. […]
(§4) Behavioral tests. […] Withdrawal thresholds were quantified as the mechanical pressure in grams applied to the hindpaws through calibrated filaments (von Frey filaments) or the time interval in seconds between the activation of an infrared thermal stimulation and the withdrawal of the limb. […]

Sprague-Dawley rats [2] = assay: Withdrawal thresholds to mechanical stimulation (von Frey) in rats, MSC transplantation and daily morphine; assay type: in vivo, rat
Protocol: as §1, §2, §3, §4

SMILES: CN1CC[C@]23c4c5ccc(O)c4O[C@H]2[C@@H](O)C=C[C@H]3[C@H]1C5 [morphine]
- cAMP levels (SH-SY5Y cells; 1 μM morphine): 150.7±20.6 % of control
- cAMP levels (SH-SY5Y cells; 10 μM morphine): 241.6±19.6 % of control
- cAMP levels over time (SH-SY5Y cells; 10 μM morphine, at 24 and 48 h vs 0 h, p<0.001 (FIG. 2)): significant increase of cAMP
- withdrawal thresholds to thermal stimulation vs pre-morphine values at day 11 (Sprague-Dawley rats [1]): significantly reduced
- withdrawal thresholds to mechanical stimulation (morphine tolerance) (Sprague-Dawley rats [2]; control (PBS) group, daily s.c. morphine 7.5 mg/kg, within five days): gradually and significantly reduced
- mean mechanical withdrawal thresholds vs pre-morphine value at day 11 (Sprague-Dawley rats [2]; control group, Day 15, 4 days after start of daily morphine injections, t=15.639, p<0.001): dramatically decreased
